Laboratory results taken from patent US4310523A, “Combined antiestrogens and antigonadotropically effective antiandrogens for the prophylaxis and therapy of hyperplasia of the prostate” (priority 1978, dated 1982).

Tests used:
[1] = system: vaginal epithelium (hornification); experiment: Vaginal swab test of the castrated rat; assay type: in vivo; conditions: subcutaneous, 1 mg
Method: One example of compounds having possible antiestrogenic effects which are not included within the scope of this invention are those disclosed in U.S. Pat. No. 4,055,641 to Benson et al which are primarily anabolic androgens. For example, the compound preferred by Benson et al, 3,17-dioxoandrost-4-ene-19-al (Column 3, lines 67-68) was tested in the vaginal swab test of the castrated rat after subcutaneous application in a dosage of 1 mg. […] In addition, the compounds of Benson et al were tested on intact (not castrated) male animals or probands. These estrogenous substances acted on the prostate by removal of androgen, not by displacing estrogen as for the antiestrogens used in this invention. The difference between the antiestrogens acting through an antagonism to estrogen receptors, i.e., those used in this invention, and those which are primariy androgenic or gestogenic in activity with some simultaneous antiestrogenic effect is also discussed in Nishino, supra.

[2] = system: Estradiol-stimulated Uterus Weight of Infantile Mice; experiment: Antiestrogenic effect on the estradiol-stimulated uterus weight of infantile mice (uterus growth test); assay type: in vivo; conditions: for Effect on uterus weight of the estradiol-stimulated uterus of infantile mice, in words: s.c., 0.3-300 μg/animal/day
Method: Daily for 3 days 0.03 μg of estradiol and measured dosages of the antiestrogen to be tested are simultaneously applied to castrated or infantile mice subcutaneously. The animals are killed on the fourth day, and the uteri are removed and weighed without contents (See Table 1). The same test is carried out on castrated or infantile rats using 0.1 μg of estradiol.
Antiestrogenic Effect of Ru-16117 and Tamoxifen on the Estradiol-stimulate
d Uterus Weight of Infantile Mice
(Mode of Administration: Subcutaneous - Number of Animals per Group:
Ru-16117, Tamoxifen and Estradiol are dissolved in a medium consisting of
benzylbenzoate/castor oil (1:10)

[3] = system: prostate hyperplasia; experiment: Prostate hyperplasia in younger dogs treated with estrogen or estrogen/androgen mixture, additional treatment with anti-androgen; assay type: in vivo, dog; conditions: additional cyproterone acetate
Description: Also in the dog, there is a proliferation primarily of the fibromuscular portion of the prostate. It is also possible to cause the aspects of the disease in younger dogs by treatment with an estrogen or an estrogen/androgen mixture.

[4] = system: prostate hyperplasia; conditions: cited from earlier work
[5] = system: hyperplastic prostate; conditions: one-year study, patients; cited from earlier work
[6] = 3 μg/animal/day s.c. + 0.03 μg estradiol/animal/day, 3 days
[7] = 3 μg/animal/day s.c. + 0.03 μg estradiol/animal/day, 3 days, 8 animals per group
[8] = 30 μg/animal/day s.c. + 0.03 μg estradiol/animal/day, 3 days
[9] = 30 μg/animal/day s.c. + 0.03 μg estradiol/animal/day, 3 days, 8 animals per group

Q: Which Estrogenous effect [1] does the source give for C[C@]12CC[C@H]3[C@@H](CCC4=CC(=O)CC[C@@]43C=O)[C@@H]1CCC2=O [3,17-dioxoandrost-4-ene-19-al] here?
A: strongly estrogenous effect

Q: What about the “Hornification of the vaginal epithelium” value [1] of the same compound?
A: Hornification of the vaginal epitelium took place

Q: For C[C@]12CC[C@@H]3c4ccc(O)cc4CC[C@H]3[C@@H]1CC[C@@H]2O [Estradiol], which “Uterus Weight, Average Value ± Standard Deviation” value ([2]; single administration of 0.03 μg estradiol once daily over 3 days, s.c. (untreated control 11.8 ± 1.3)) is on record?
A: 63.9 ± 6.2 mg

Q: With C#C[C@]1(O)CC[C@H]2[C@@H]3CCc4cc(O)ccc4[C@H]3[C@H](OC)C[C@@]21C [Ru-16117, 11α-methoxy-17α-ethynyl-1,3,5(10)-estratriene-3,17β-diol] as the compound, how does the “% Inhibition, Decrease of Uterus Weight in Comparison to Single Estradiol Administration” value (“% Inhibition, Decrease of Uterus Weight” below) ([2]; 0.3 μg/animal/day s.c. + 0.03 μg estradiol/animal/day, 3 days) read?
A: 8%

Q: And the “Uterus Weight, Average Value ± Standard Deviation” value ([2]; 0.3 μg/animal/day s.c. + 0.03 μg estradiol/animal/day, 3 days, 8 animals per group)?
A: 60.0 ± 2.4 mg

Q: And the “% Inhibition, Decrease of Uterus Weight” value [2, 6]?
A: 27%

Q: And the “Uterus Weight, Average Value ± Standard Deviation” value [2, 7]?
A: 49.8 ± 1.6 mg

Q: And the “% Inhibition, Decrease of Uterus Weight” value [2, 8]?
A: 58%

Q: And the “Uterus Weight, Average Value ± Standard Deviation” value [2, 9]?
A: 34.3 ± 2.3 mg

Q: What about the “Effectiveness compared with Tamoxifen” value ([2]; "somewhat more effective than Tamoxifen") of the same compound?
A: somewhat more

Q: And the “Effect on uterus weight of the estradiol-stimulated uterus of infantile mice, in words” value ([2]; 3 days)?
A: pronounced dosagedependent decrease in uterus weight

Q: Which “% Inhibition, Decrease of Uterus Weight” value [2, 6] does the source give for CC/C(=C(\c1ccccc1)c1ccc(OCCN(C)C)cc1)c1ccccc1 [Tamoxifen, (Z)-2-[p-(1,2-diphenyl-1-butenyl)-phenoxy]-N,N-dimethylethylamine] here?
A: 11%

Q: What about the “Uterus Weight, Average Value ± Standard Deviation” value [2, 7] of the same compound?
A: 57.5 ± 2.1 mg

Q: And the “% Inhibition, Decrease of Uterus Weight” value [2, 8]?
A: 40%

Q: What about the “Uterus Weight, Average Value ± Standard Deviation” value [2, 9] of the same compound?
A: 43.3 ± 3.1 mg

Q: And the “% Inhibition, Decrease of Uterus Weight” value ([2]; 100 μg/animal/day s.c. + 0.03 μg estradiol/animal/day, 3 days)?
A: 46%

Q: What about the “Uterus Weight, Average Value ± Standard Deviation” value ([2]; 100 μg/animal/day s.c. + 0.03 μg estradiol/animal/day, 3 days, 8 animals per group) of the same compound?
A: 39.7 ± 3.1 mg

Q: And the “% Inhibition, Decrease of Uterus Weight” value ([2]; 300 μg/animal/day s.c. + 0.03 μg estradiol/animal/day, 3 days)?
A: 58%

Q: And the “Uterus Weight, Average Value ± Standard Deviation” value ([2]; 300 μg/animal/day s.c. + 0.03 μg estradiol/animal/day, 3 days, 8 animals per group)?
A: 34.1 ± 4.3 mg

Q: And the “Effect on uterus weight of the estradiol-stimulated uterus of infantile mice, in words” value ([2]; 3 days)?
A: pronounced dosagedependent decrease in uterus weight

Q: For CC(=O)O[C@]1(C(C)=O)CC[C@H]2[C@@H]3C=C(Cl)C4=CC(=O)[C@@H]5C[C@@H]5[C@]4(C)[C@H]3CC[C@@]21C [cyproterone acetate, 6-chloro-17-hydroxy-1α,2α-methylenepregna-4,6-diene-3,20-dione acetate], which “Effect on gland parenchyma” value [3] is on record?
A: total atrophy of the gland parenchyma

Q: What about the “Effect on proliferation of the interstitium” value [3] of the same compound?
A: proliferation of the interstitium is not affected

Q: Which “Maximum flow value (flow of urine per unit time)” value ([4]; in vivo) does the source give for CCCCCC(=O)O[C@]1(C(C)=O)CC[C@H]2[C@@H]3CCC4=CC(=O)CC[C@@H]4[C@H]3CC[C@@]21C [gestonorone caproate] here?
A: improved

Q: And the “Reduction of the size of the adenoma” value ([4]; in vivo)?
A: A marked reduction of the size of the adenoma, however, also cannot be achieved

Q: And the Miction period ([4]; prolonged prior to treatment)?
A: markedly shortened

Q: What about the “Effect compared with phyto-preparations” value ([4]; prostate hyperplasia) of the same compound?
A: a better effect

Q: With CC[C@H](CC[C@@H](C)[C@H]1CC[C@H]2[C@@H]3CC=C4C[C@@H](O)CC[C@]4(C)[C@H]3CC[C@]12C)C(C)C [β-sitosterol] as the compound, how does the “Effectiveness in prostate hyperplasia” value [5] read?
A: ineffective
